Results as given in US7138361B2, “Herbicidal heterocycles” (E. I. du Pont de Nemours and Company, priority 2000, dated 2006).

Key:
Assay type in all cases: in vivo
[1] = system: lambsquarters (Chenopodium album); experiment: Test C postemergence
From the text: (§1) Seeds of plant species selected from bermudagrass (Cynodon dactylon), Surinam grass (Brachiaria decumbens), cocklebur (Xanthium strumarium), corn (Zea mays), crabgrass (Digitaria sanguinalis), woolly cupgrass (Eriochloa villosa), giant foxtail (Setaria faberii), goosegrass (Eleusine indica), johnsongrass (Sorghum halepense), kochia (Kochia scoparia), lambsquarters (Chenopodium album), morningglory (Ipomoea hederacea), yellow nutsedge (Cyperus esculentus), pigweed (Amaranthus retroflexus), common ragweed (Ambrosia elatior), soybean (Glycine max) and velvetleaf (Abutilon theophrasti) were planted and treated preemergence with test chemicals formulated in a non-phytotoxic solvent mixture which included a surfactant.
(§2) At the same time, plants selected from these crop and weed species and also winter barley (Hordeum vulgare), blackgrass (Alopecurus myosuroides), canary grass (Phalaris minor), chickweed (Stellaria media), downy brome (Bromus tectorum), green foxtail (Setaria viridis), Italian ryegrass (Lolium multiflorum), wheat (Triticum aestivum), wild oat (Avena fatua) and windgrass (Apera spica-venti) were treated with postemergence applications of some of the test chemicals formulated in the same manner. Plants ranged in height from 2 to 18 cm (1- to 4-leaf stage) for postemergence treatments. Plant species in the flooded paddy test consisted of rice (Oryza saliva), smallflower flatsedge (Cyperus difformis), duck salad (Heteranthera limosa) and barnyardgrass (Echinochloa crus-galli) grown to the 2-leaf stage for testing. Treated plants and controls were maintained in a greenhouse for 12 to 14 days, after which time all species were compared to controls and visually evaluated. Plant response ratings, summarized in Table C, are based on a scale of 0 to 100 where 0 is no effect and 100 is complete control. A dash (-) response means no test result.

[2] = system: pigweed (Amaranthus retroflexus); experiment: Test C postemergence
From the text: as §1, §2

kochia (Kochia scoparia) = experiment: Test C postemergence
From the text: as §1, §2

Sunflower = experiment: Test C preemergence; conditions: scale 0 to 100
[3] = system: cocklebur (Xanthium strumarium); experiment: Test B postemergence
In short: (§3)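 Pre: seeded pots sprayed, chemical in non-phytotoxic solvent/surfactant mix. Post: plants 2–18 cm, 1–4 leaf, same formulation. Greenhouse 13–15 d; visual % control vs untreated, 0–100 scale.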

[4] = system: lambsquarters (Chenopodium album); experiment: Test B postemergence
In short: as §3

[5] = system: pigweed (Amaranthus retroflexus); experiment: Test B postemergence
In short: as §3

[6] = system: velvetleaf (Abutilon theophrasti); experiment: Test B postemergence
In short: as §3

[7] = system: giant foxtail (Setaria faberii); experiment: Test B postemergence
In short: as §3

[8] = system: morning glory (Ipomoea hederacea); experiment: Test B postemergence
In short: as §3

[9] = system: Surinam grass (Brachiaria decumbens); experiment: Test B postemergence
In short: as §3

[10] = system: crabgrass (Digitaria sanguinalis); experiment: Test B postemergence
In short: as §3

[11] = system: blackgrass (Alopecurus myosuroides); experiment: Test B postemergence
In short: as §3

[12] = Rate 250 g/ha, scale 0 to 100 (0 no effect, 100 complete control)
[13] = Rate 500 g/ha, scale 0 to 100 (0 no effect, 100 complete control)
[14] = Rate 125 g/ha, scale 0 to 100, 0 no effect, 100 complete control
[15] = Rate 500 g/ha, scale 0 to 100, 0 is no effect, 100 is complete control, 13 to 15 days
[16] = Rate 125 g/ha, scale 0 (no effect) to 100 (complete control), 13 to 15 days

Row | SMILES | Plant response rating, Sunflower (Sunflower; Rate 62 g/ha) | Plant response rating, Cocklebur [3, 14] | Plant response rating, Cocklebur [3, 15] | Plant response rating, Lambsquarters [4, 14] | Plant response rating, Pigweed [5, 14] | Plant response rating, Velvetleaf [6, 14] | Plant response rating, Foxtail, Giant [7, 14] | Plant response rating, Surinam grass [9, 15] | Plant response rating, Cocklebur [3, 16] | Plant response rating, Lambsquarters [4, 15] | Plant response rating, Pigweed [5, 15] | Plant response rating, Velvetleaf [6, 15] | Plant response rating, Foxtail, Giant [7, 16] | Plant response rating, Foxtail, Giant [7, 15] | Plant response rating, Crabgrass [10, 16] | Plant response rating, Crabgrass [10, 15] | Plant response rating, Morningglory [8, 15] | Plant response rating, Surinam grass [9, 16] | Plant response rating, Blackgrass [11, 16] | Plant response rating, Blackgrass [11, 15] | further results
1 | Cc1ccc(N2CCC(n3ccc(C(C)(C)C)n3)C2=O)cc1I (stereo not drawn) [Compound 122] | 0 | 30 | 90 | 90 | 30 | 0 | 0 | 0 | – | – | – | – | – | – | – | – | – | – | – | – | Plant response rating, Lambsquarters ([1]; Rate 62 g/ha, scale 0 to 100): 100; Plant response rating, Lambsquarters [1, 12]: 100; Plant response rating, Lambsquarters [1, 13]: 100; Plant response rating, Pigweed ([2]; Rate 62 g/ha, scale 0 to 100): 40; Plant response rating, Pigweed [2, 12]: 100; Plant response rating, Pigweed [2, 13]: 100; Plant response rating, Kochia (kochia (Kochia scoparia); Rate 62 g/ha, scale 0 to 100): 90; Plant response rating, Kochia (kochia (Kochia scoparia); [12]): 100; Plant response rating, Kochia (kochia (Kochia scoparia); [13]): 100; Plant response rating, Morningglory [8, 14]: 20; Plant response rating, Surinam grass [9, 14]: 0
2 | CC(C)Oc1cccc(N2CCC(n3ccc(C(C)(C)C)n3)C2=O)c1 (stereo not drawn) [Compound 70] | – | – | 0 | – | – | – | – | 0 | 0 | 0 | 0 | 0 | 0 | 0 | 0 | 0 | 30 | 0 | 0 | 0 | Plant response rating, Sunflower (Sunflower; Rate 31 g/ha): 0; Plant response rating, Lambsquarters [4, 16]: 0; Plant response rating, Pigweed [5, 16]: 0; Plant response rating, Velvetleaf [6, 16]: 0; Plant response rating, Morningglory [8, 16]: 30
3 | CC(C)(C)c1ccn(C2CCN(c3cccc(Cl)c3)C2=O)n1 (stereo not drawn) [Compound 43] | – | – | 0 | – | – | – | – | 0 | 0 | 80 | 80 | 0 | 0 | 0 | 0 | 50 | 0 | 0 | 0 | 0 | Plant response rating, Sunflower (Sunflower; Rate 16 g/ha): 0; Plant response rating, Sunflower (Sunflower; Rate 31 g/ha): 0; Plant response rating, Lambsquarters [4, 16]: 50; Plant response rating, Pigweed [5, 16]: 50; Plant response rating, Velvetleaf [6, 16]: 0; Plant response rating, Morningglory [8, 16]: 0
4 | CCC(C)Oc1cccc(N2CCC(n3ccc(C(C)(C)C)n3)C2=O)c1 (stereo not drawn) [Compound 127] | 0 | 0 | 60 | 30 | 0 | 0 | 0 | 0 | – | – | – | – | – | – | – | – | – | – | – | 0 | Plant response rating, Crabgrass [10, 14]: 0; Plant response rating, Morningglory [8, 14]: 0; Plant response rating, Surinam grass [9, 14]: 0; Plant response rating, Blackgrass [11, 14]: 0
5 | CC(C)c1cccc(N2CCC(n3ccc(C(C)(C)C)n3)C2=O)c1 (stereo not drawn) [Compound 111] | 0 | 0 | 0 | 0 | 0 | 0 | 0 | 40 | – | 20 | 0 | 0 | – | 0 | – | 30 | 0 | – | – | 20 | Plant response rating, Crabgrass [10, 14]: 0; Plant response rating, Morningglory [8, 14]: 0; Plant response rating, Surinam grass [9, 14]: 0; Plant response rating, Blackgrass [11, 14]: 0
6 | CCC(CC)c1ccn(C2CCN(c3cccc(OC(C)C)c3)C2=O)n1 (stereo not drawn) [Compound 84] | 0 | – | 20 | – | – | – | – | 10 | 10 | 60 | 70 | 10 | 0 | 10 | 0 | 10 | 30 | 0 | 0 | 0 | Plant response rating, Lambsquarters [4, 16]: 50; Plant response rating, Pigweed [5, 16]: 60; Plant response rating, Velvetleaf [6, 16]: 0; Plant response rating, Morningglory [8, 16]: 10
7 | CCCC(C)c1ccn(C2OCN(c3cccc(C(F)(F)F)c3)C2=O)n1 (stereo not drawn) [Compound 89] | 0 | – | 30 | – | – | – | – | 0 | 0 | 100 | 90 | 0 | 90 | 70 | 0 | 60 | 40 | 0 | 0 | 0 | –
8 | CCOc1cccc(N2CCC(n3ccc(C(C)C)n3)C2=O)c1 (stereo not drawn) [Compound 128] | 20 | 0 | 50 | 0 | 0 | 0 | 0 | 100 | – | – | – | – | – | – | – | – | – | – | – | 0 | Plant response rating, Crabgrass [10, 14]: 0; Plant response rating, Morningglory [8, 14]: 0; Plant response rating, Surinam grass [9, 14]: 70; Plant response rating, Blackgrass [11, 14]: 0
9 | CCCC(C)c1ccn(C2SCN(c3cccc(C(F)(F)F)c3)C2=O)n1 (stereo not drawn) [Compound 92] | 0 | – | 80 | – | – | – | – | 10 | 20 | 90 | 60 | 20 | 0 | 30 | 10 | 50 | 50 | 0 | 0 | 0 | –
10 | CSc1cccc(N2CCC(n3ccc(C(C)(C)C)n3)C2=O)c1 (stereo not drawn) [Compound 86] | 0 | – | 0 | – | – | – | – | 0 | 0 | 50 | 0 | 0 | 0 | 0 | 0 | 0 | 0 | 0 | 0 | 0 | Plant response rating, Lambsquarters [4, 16]: 0; Plant response rating, Pigweed [5, 16]: 0; Plant response rating, Velvetleaf [6, 16]: 0; Plant response rating, Morningglory [8, 16]: 0
